Measurements as given in PMC6124754, “Characterization of new, efficient Mycobacterium tuberculosis topoisomerase-I inhibitors and their interaction with human ABC multidrug transporters” (PLoS ONE, 2018).
In brackets after ≈: the same amount, converted by molar mass. Entries after “also recorded” stand apart in the source; their conditions may differ. Where two headings read alike, the source gives them in different places.

How the values were obtained:
[1] = test system: HFF cell line; assay: Cytotoxicity, PrestoBlue 72 h, HFF; type: cell-based, human; details: Non-toxic = not toxic up to 20 μM; for IC50: read-out: Toxicity in HFF cell line, IC50
Protocol: (§1) The toxic effects of the selected MtTopo-I inhibitory Vichem compounds were tested in three cell lines, HFF (human foreskin fibroblast), HEK293 (human embryonic kidney) and A431 (human epidermoid carcinoma) cell lines, obtained from ATCC. Establishment of ABC transporter-expressing A431cell lines was achieved by retroviral transduction of the cells as described previously.
(§2) For cytotoxicity measurements the cells were seeded in a 96-well culture plate at 5,000 cells/well (A431, HEK293) or 6000 cells/well (HFF) and incubated overnight. […] After 72 hours of incubation viability was assessed by PrestoBlue® assay (Invitrogen). IC50 values were obtained by sigmoidal curve fitting in the GraphPad Prism software. All experiments were performed in triplicates and repeated at least in three independent experiments. DMSO, used as solvent of the compounds, had no effect on viability at the applied concentration.

[2] = test system: parental A431 cell line; assay: Cytotoxicity, PrestoBlue 72 h, parental A431; type: cell-based, human; details: Non-toxic = not toxic up to 20 μM; for IC50: read-out: Toxicity in parental A431 cell line, IC50
Protocol: as §1, §2

[3] = test system: HEK293 cell line; assay: Cytotoxicity, PrestoBlue 72 h, HEK293; type: cell-based, human; details: for IC50: Homo sapiens, HEK293, Non-toxic = not toxic up to 20 μM, read-out: Toxicity in HEK293 cell line, IC50
Protocol: as §1, §2

[4] = molecular target: T1, human ABCG2 (Homo sapiens, UniProt Q9UNQ0); assay: Cellular transport assay, DCV or mitoxantrone uptake in ABCG2-overexpressing PLB cells; type: cell-based; set-up: expressed in transfected cells; host or cells: PLB (human lymphoblastoid) cells, lentiviral transduction; details: S6 summary table; further: key: 0: no observed effect; +: effect observed in the assay; In the ATPase assay showing only inhibition, the - sign is applied
T1 sequence (Q9UNQ0 1-655): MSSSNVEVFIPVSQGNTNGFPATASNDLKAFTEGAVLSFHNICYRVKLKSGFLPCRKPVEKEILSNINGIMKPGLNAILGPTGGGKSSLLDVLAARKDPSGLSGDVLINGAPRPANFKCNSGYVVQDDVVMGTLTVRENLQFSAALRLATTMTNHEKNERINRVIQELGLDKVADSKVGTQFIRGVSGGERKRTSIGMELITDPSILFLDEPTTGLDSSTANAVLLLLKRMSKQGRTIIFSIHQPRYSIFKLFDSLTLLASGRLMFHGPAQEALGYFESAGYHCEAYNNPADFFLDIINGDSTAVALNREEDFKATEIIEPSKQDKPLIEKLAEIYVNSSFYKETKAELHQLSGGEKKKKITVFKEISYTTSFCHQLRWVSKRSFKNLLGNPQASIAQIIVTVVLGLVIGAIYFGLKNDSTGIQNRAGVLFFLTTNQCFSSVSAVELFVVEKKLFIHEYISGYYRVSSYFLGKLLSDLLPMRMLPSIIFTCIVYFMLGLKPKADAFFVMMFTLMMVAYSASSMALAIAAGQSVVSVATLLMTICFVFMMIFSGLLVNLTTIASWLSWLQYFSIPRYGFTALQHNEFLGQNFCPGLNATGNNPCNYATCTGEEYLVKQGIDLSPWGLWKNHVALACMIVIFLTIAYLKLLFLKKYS
Protocol: (§3) For cellular transport assays, mammalian PLB (lymphoblastoid) cell lines, overexpressing ABCB1 or ABCG2 were used. The parental PLB cell line was purchased from ATCC, and ABCB1 or ABCG2 overexpressing cell lines were established by using lentiviral vectors for human ABC transporters as described earlier in [29]. The transport assays were carried out in 96-well plates. 1x10^5 cells were incubated in the presence of 0.1 μM Calcein-AM or 1 μM DCV (Dye Cycler Violet) for the ABCB1 and for the ABCG2 assays, respectively. The assay was performed in HPMI medium (NaCl 120 mM, KCl 5 mM, MgCl2 0.4 mM, CaCl2 0.04 mM, HEPES 10 mM, NaHCO3 10 mM, glucose 10 mM, Na2HPO4 5 mM; pH 7.4). Fluorescence of the cells was detected using a Victor X3 plate reader (for Calcein, exc. at 485 nm, em. at 535 nm) or the Enspire 2300 (Perkin Elmer) plate reader (for DCV, exc. at 360 nm, em. at 440 nm). Kinetics of fluorescence intensity changes were analyzed to determine relative inhibition, compared to that of a reference agent, providing full inhibition of the ABC transporter. Two of the Vichem compounds examined (VCC979812 and VCC38977) were not compatible with the DCV uptake assay because of their intrinsic fluorescence, therefore for these two compounds ABCG2 transport inhibition was characterized by following mitoxantrone uptake. Mitoxantrone uptake was measured by flow cytometry (BD FACSCanto at 633 nm) by 20 minutes incubation in the presence of 7.5 μM mitoxantrone. Each compound was measured in at least three independent experiments with three parallels in each case. DMSO, used as a solvent of compounds had no effect in this assay at the applied concentration.

[5] = molecular target: T2, MtTopo-I (Mycobacterium tuberculosis, UniProt P9WG49); assay: DNA relaxation assay of supercoiled pUC18 DNA by MtTopo-I; type: biochemical; details: minimum concentration providing complete inhibition
T2 construct: made in house; host or cells: E. coli
T2 sequence (P9WG49 whole entry): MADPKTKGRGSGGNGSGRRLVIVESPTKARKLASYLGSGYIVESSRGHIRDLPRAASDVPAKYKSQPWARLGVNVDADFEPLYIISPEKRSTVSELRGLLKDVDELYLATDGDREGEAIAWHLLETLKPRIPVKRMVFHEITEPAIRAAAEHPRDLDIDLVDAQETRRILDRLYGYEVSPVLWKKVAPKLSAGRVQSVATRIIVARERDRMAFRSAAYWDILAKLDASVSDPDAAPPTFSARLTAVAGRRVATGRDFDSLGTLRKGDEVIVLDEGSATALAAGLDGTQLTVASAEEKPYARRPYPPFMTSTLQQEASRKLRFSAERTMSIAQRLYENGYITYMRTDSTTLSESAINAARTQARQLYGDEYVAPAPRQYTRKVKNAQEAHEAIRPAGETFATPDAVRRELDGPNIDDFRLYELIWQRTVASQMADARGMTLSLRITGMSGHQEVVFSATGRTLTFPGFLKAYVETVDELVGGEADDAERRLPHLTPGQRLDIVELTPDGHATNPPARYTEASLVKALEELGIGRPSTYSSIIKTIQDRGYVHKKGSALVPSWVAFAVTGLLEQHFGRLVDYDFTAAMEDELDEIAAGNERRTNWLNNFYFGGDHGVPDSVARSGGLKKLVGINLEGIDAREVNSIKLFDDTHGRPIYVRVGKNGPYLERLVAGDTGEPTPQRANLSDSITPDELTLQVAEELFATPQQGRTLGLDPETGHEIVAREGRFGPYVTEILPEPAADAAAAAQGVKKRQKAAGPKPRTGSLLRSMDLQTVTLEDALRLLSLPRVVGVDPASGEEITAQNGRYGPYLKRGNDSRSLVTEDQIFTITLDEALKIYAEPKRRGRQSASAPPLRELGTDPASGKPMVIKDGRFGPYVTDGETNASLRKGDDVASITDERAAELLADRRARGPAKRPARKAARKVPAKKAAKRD

[6] = test system: ABCG2-overexpressing A431 cell line; details: human, 72 h
[7] = molecular target: T3, human ABCB1 (Homo sapiens, UniProt P08183); assay: Cellular transport assay, Calcein-AM uptake in ABCB1-overexpressing PLB cells; type: cell-based; details: S6 summary table; further: key: 0: no observed effect; +: effect observed in the assay; In the ATPase assay showing only inhibition, the - sign is applied
T3 sequence (P08183 whole entry): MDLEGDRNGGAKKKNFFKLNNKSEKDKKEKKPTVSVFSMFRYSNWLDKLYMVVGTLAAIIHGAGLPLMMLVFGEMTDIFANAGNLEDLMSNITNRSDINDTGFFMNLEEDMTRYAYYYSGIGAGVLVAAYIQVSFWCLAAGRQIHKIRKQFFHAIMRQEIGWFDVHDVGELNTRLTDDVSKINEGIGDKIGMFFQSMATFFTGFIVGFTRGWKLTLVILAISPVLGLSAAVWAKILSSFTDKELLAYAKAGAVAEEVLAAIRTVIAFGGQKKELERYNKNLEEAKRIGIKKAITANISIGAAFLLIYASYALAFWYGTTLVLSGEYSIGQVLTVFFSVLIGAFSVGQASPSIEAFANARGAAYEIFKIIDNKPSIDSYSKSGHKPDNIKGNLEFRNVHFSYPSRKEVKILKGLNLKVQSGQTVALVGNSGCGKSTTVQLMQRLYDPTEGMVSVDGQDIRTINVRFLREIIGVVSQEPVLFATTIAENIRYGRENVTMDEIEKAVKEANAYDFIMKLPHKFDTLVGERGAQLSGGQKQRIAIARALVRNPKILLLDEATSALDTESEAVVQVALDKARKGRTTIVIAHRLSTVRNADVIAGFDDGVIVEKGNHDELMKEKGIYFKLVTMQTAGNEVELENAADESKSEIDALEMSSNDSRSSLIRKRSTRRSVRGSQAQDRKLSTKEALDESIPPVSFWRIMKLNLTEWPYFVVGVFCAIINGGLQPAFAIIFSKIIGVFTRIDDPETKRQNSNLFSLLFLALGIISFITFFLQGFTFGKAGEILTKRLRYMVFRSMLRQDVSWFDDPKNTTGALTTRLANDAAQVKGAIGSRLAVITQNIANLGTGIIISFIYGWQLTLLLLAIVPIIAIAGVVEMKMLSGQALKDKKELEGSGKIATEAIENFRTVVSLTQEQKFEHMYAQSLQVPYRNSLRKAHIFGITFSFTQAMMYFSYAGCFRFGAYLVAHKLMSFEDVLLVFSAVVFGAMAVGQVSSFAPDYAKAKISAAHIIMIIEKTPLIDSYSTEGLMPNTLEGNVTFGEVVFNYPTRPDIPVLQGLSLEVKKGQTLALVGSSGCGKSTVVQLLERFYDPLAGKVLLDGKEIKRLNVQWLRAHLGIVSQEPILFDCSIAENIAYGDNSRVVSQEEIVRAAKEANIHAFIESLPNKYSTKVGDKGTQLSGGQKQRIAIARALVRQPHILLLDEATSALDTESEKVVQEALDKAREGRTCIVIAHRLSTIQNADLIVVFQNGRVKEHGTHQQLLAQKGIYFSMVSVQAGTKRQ
Protocol: as §3

[8] = test system: HFF, HEK293 and A431 cell lines; type: cell-based, human
Protocol: as §1, §2

[9] = molecular target: T3, human ABCB1; assay: Vanadate-sensitive ATPase activity assay in Sf9 membrane vesicles, ABCB1; type: biochemical; set-up: made in house; host or cells: Sf9 insect cells (baculovirus), membrane vesicles; ABCB1 ATPase Vmax: unit not given here; details: for ABC transporter ATPase assay, ABCB1 (summary): S6 summary table; for Effect on ABCB1-ATPase activity (in words): Sf9 membrane vesicles, 0.1–10 μM for the stimulation in b53; for ABCB1 ATPase Vmax: vanadate-sensitive ATPase, from dose-response curves, basal 5.7±0.7; on ABC transporter ATPase assay, ABCB1 (summary): key: 0: no observed effect; +: effect observed in the assay; In the ATPase assay showing only inhibition, the - sign is applied
[10] = test system: ABCB1-overexpressing A431 cell line; details: human, 72 h
[11] = test system: H37Rv Mtb strain; assay: H37Rv growth inhibition, resazurin reduction microplate assay (REMA); type: cell-based, Mycobacterium tuberculosis; details: for Toxicity in H37Rv assay (summary): S6 summary table
[12] = molecular target: T1, human ABCG2; assay: Vanadate-sensitive ATPase activity assay in Sf9 membrane vesicles, ABCG2; type: biochemical; set-up: made in house; host or cells: Sf9 insect cells (baculovirus), membrane vesicles; ABCG2 ATPase, concentration at Vmax: unit not given here; details: for ABC transporter ATPase assay, ABCG2 (summary): S6 summary table; for Effect on ABCG2-ATPase activity (in words): Sf9 membrane vesicles, 0.1–10 μM for stimulation, 50 μM for inhibition; for ABCG2 ATPase Vmax: vanadate-sensitive ATPase, from dose-response curves, basal 22±1.4
[13] = concentration at which Vmax was seen

SMILES	Toxicity in HFF cell line, IC50 [1]	IC50 ([2]; Homo sapiens, A-431, 72 h)	IC50 [3]	ABC transporter transport assay, ABCG2 (summary) [4]	Complete inhibition of MtTopoI [5]	ABC transporter transport assay, ABCB1 (summary) [7]	Toxicity in human cell lines (in words) [8]	ABC transporter ATPase assay, ABCB1 (summary) [9]	Effect on ABCB1-ATPase activity (in words) [9]	ABCB1 ATPase Vmax [9]	Toxicity in H37Rv assay (summary) [11]	ABC transporter ATPase assay, ABCG2 (summary) [12]	Effect on ABCG2-ATPase activity (in words) [12]	ABCG2 ATPase Vmax [12]	other results
CCc1c2c(nc3ccc(OC(=O)N4CCC(N5CCCCC5)CC4)cc13)-c1cc3c(c(=O)n1C2)COC(=O)[C@]3(O)CC [Irinotecan, reference compound]	Non-toxic	8.6 µM	2.5 µM	–	–	–	–	–	–	–	–	–	–	–	–
COc1ccc(/C=C/c2nc(NCCCN(C)C)c3cc4ccccc4cc3n2)cc1 [VCC340963]	–	< 5 µM	10 to 20 µM	+	10 to 25 µM	+	toxic	0	no measurable effect	7.9±1.2	+	0	no measurable effect	22.2±4	ABC transporter modified cytotoxicity, ABCG2 (summary) [6]: 0; Toxicity in mammalian cell lines (summary) [8]: +; IC50 ([1]; Homo sapiens, HFF): < 5 µM; IC50 [1]: 2.5 to 5 µM; IC50 [2]: 3.23 µM; ABC transporter modified cytotoxicity, ABCB1 (summary) [10]: 0; MIC90 ([11]; Mycobacterium tuberculosis, H37RV, minimum concentration providing 90% growth inhibition, 20 to 0.04 μM, N.I. = no inhibition observed up to 20 μM, read-out: MIC90 of compounds in H37Rv growth test): 2.5 µM (≈ 1.03 µg/mL); Growth inhibition of H37Rv mycobacteria (in words) ([11]; tested up to 20 μM): effectively inhibited the growth
Cc1ccc(-n2nc(C(C)(C)C)cc2Nc2nc3ccccc3nc2NCCCO)cc1 [VCC389777]	Non-toxic	–	–	+	7.5 to 10 µM	+	non-toxic	+	well measurable stimulatory effect	14.4±1.5	0	+	significantly stimulated; also recorded: slightly increased	32.0±3.6	Toxicity in mammalian cell lines (summary) ([8]; human, 72 h): 0; Toxicity in parental A431 cell line, IC50 [2]: Non-toxic; Effect on ABCB1-ATPase activity (in words) ([9]; listed as VCC38977): slightly increased; ABCB1 ATPase, concentration at Vmax [9, 13]: 12.5 µM; Toxicity in HEK293 cell line, IC50 ([3]; Non-toxic = not toxic up to 20 μM): Non-toxic; MIC90 of compounds in H37Rv growth test ([11]; minimum concentration providing 90% growth inhibition, 20 to 0.04 μM, N.I. = no inhibition observed up to 20 μM): N.I.; ABCG2 ATPase, concentration at Vmax [12, 13]: 0.4
